# Data as given in patent publication US11414378B2, “Anti-fungals compounds targeting the synthesis of fungal sphingolipids” (THE RESEARCH FOUNDATION FOR THE STATE UNIVERSITY OF NEW YORK, priority 2017, dated 2022).
# Columns and labels:
# C. neoformans cells = experiment: In vitro killing activity (K100) assay; type: cell-based, Cryptococcus neoformans; conditions: minimum concentration that kills 100% of C. neoformans cells in 48 h; for MFC: Cryptococcus neoformans
# Method: C. neoformans cells from a culture grown overnight were washed in PBS and resuspended in YNB buffered with HEPES at pH 7.4. The cells were counted, and 2×10^4 cells were incubated with different concentration of compounds in a final volume of 10 ml with a final concentration of 0.5% DMSO. The tubes were then incubated at 37° C. with 5% CO2 on a rotary shaker at 200 rpm. Aliquots were taken at time points and diluted, and […] were plated onto Yeast Extract-Peptone-Dextrose (YPD) plates. YPD plates were incubated in a 30° C. incubator and after 48 h, the numbers of CFU were counted and recorded.
# C. neoformans = experiment: In vitro susceptibility (MIC80) assay; type: cell-based; conditions: Cryptococcus neoformans; lowest concentration that inhibited 80% of growth; YNB pH 7.0, HEPES, 37° C., 5% CO2
# Method: MICs was determined following the methods of the Clinical and Laboratory Standards Institutes (CLSI) with modifications. Yeast Nitrogen Base (YNB) medium (pH 7.0, 0.2% glucose) buffered with HEPES was used for MIC studies. […] The compound was serially diluted from 16 to 0.03 μg/ml, in a 96-well plate. The inoculum was prepared as described in the CLSI protocol M27A3 guidelines. The plates were incubated at 37° C. with 5% CO2 for 24 to 72 h and the optical density was measure at 450 nm. The MICs was determined as the lowest concentration of the compound that inhibited 80% of growth compared to the control.
Structure (SMILES),MIC80 (C. neoformans) [µg/mL],MFC (C. neoformans cells) [µg/mL],K100* (μg/mL) (C. neoformans cells)
"N#Cc1ccc(C(=O)N/N=C/c2cc(Br)cc(Br)c2O)cc1 [Compound A11, 4-Cyano-N′-(3,5-dibromo-2-hydroxybenzylidene)benzohydrazide]",0.06,> 1,–
"O=C(N/N=C/c1cc(F)ccc1O)c1ccc(Br)cc1Br [Compound A4, 2,4-Dibromo-N′-(5-fluoro-2-hydroxybenzylidene)benzohydrazide]",1,> 4,–
"O=C(N/N=C/c1cc(C(F)(F)F)ccc1O)c1cccc(Br)c1 [Compound A14, 3-Bromo-N′-(2-hydroxy-5-trifluoromethylbenzylidene)benzohydrazide]",0.5,> 2,–
"O=C(N/N=C/c1cc(Br)ccc1O)c1ccc(OC(F)(F)F)cc1F [Compound A12, 2-Fluoro-4-trifluoromethoxy-N′-(5-bromo-2-hydroxybenzylidene)benzohydrazide]",0.5,0.5,–
"O=C(N/N=C/c1cc(Cl)cc(Cl)c1O)c1ccc(Br)c(Br)c1 [Compound A30, 3,4-Dibromo-N′-(3,5-dichloro-2-hydroxybenzylidene)benzohydrazide]",< 0.03,> 0.025,–
"O=C(N/N=C/c1cc(Br)cc(Br)c1O)c1ccc(Br)c(Br)c1 [Compound A29, 3,4-Dibromo-N′-(3,5-dibromo-2-hydroxybenzylidene)benzohydrazide]",0.06,> 0.5,–
"O=C(N/N=C/c1cccc(Cl)c1O)c1cccc(C(F)(F)F)c1 [Compound A24, 3-Trifluoromethyl-N′-(3-chloro-2-hydroxybenzylidene)benzohydrazide]",1,4,–
CN(C)c1ccc(C(=O)N/N=C/c2ccc(Br)cc2O)cc1 [Compound A16],0.25,> 1,–
"O=C(N/N=C/c1ccc(Br)cc1O)c1cc(Br)cc(Br)c1O [Compound A18, 3,5-Dibromo-2-hydroxy-N′-(4-bromo-2-hydroxybenzylidene)benzohydrazide]",0.25,0.25,–
"O=C(N/N=C/c1cccc(Br)c1O)c1cccc(F)c1 [Compound A27, 3-Fluoro-N′-(3-bromo-2-hydroxybenzylidene)benzohydrazide]",1,2,–
"O=C(N/N=C/c1cc(F)ccc1O)c1ccc(Br)cc1 [Compound A2, 4-Bromo-N′-(5-fluoro-2-hydroxybenzylidene)benzohydrazide]",1,> 4,–
"O=C(N/N=C/c1cc(Br)ccc1O)c1cccc(OC(F)F)c1 [Compound A5, 3-Difluoromethoxy-N′-(5-bromo-2-hydroxybenzylidene)benzohydrazide]",0.12,–,Fungistatic
"O=C(N/N=C/c1cccc(Br)c1O)c1cccc(C(F)(F)F)c1 [Compound A25, 3-Trifluoromethyl-N′-(3-bromo-2-hydroxybenzylidene)benzohydrazide]",1,2,–
"O=C(N/N=C/c1cc(Br)cc(Br)c1O)c1cnc2ccccc2c1 [Compound A10, N′-(3,5-dibromo-2-hydroxybenzylidene) quinolinylhydrazide]",0.25,–,Fungistatic
"Cc1ccc(O)c(/C=N/NC(=O)c2cc(Br)cc(Br)c2O)c1 [Compound A17, 3,5-Dibromo-2-hydroxy-N′-(5-methyl-2-hydroxyphenylmethylidene)benzohydrazide]",0.25,0.25,–
"O=C(N/N=C/c1cc(Br)cc(Br)c1O)c1cccc(OC(F)F)c1 [Compound A6, 3-Difluoromethoxy-N′-(3,5-dibromo-2-hydroxybenzylidene)benzohydrazide]",0.12,0.5,–
"O=C(N/N=C/c1cc(Br)ccc1O)c1ccc(C(F)(F)F)cc1F [Compound A8, 2-Fluoro-4-trifluoromethyl-N′-(5-bromo-2-hydroxybenzylidene)benzohydrazide]",0.5,1,–
"O=C(N/N=C/c1cc(Br)ccc1O)c1ccc(OC(F)F)cc1 [Compound A22, 4-Difluoromethoxy-N′-(5-bromo-2-hydroxybenzylidene)benzohydrazide]",0.25,–,–
"O=C(N/N=C/c1cc(Br)cc(Br)c1O)c1ccc(OC(F)F)cc1 [Compound A23, 4-Difluoromethoxy-N′-(3,5-dibromo-2-hydroxybenzylidene)benzohydrazide]",0.12,–,–
"O=C(N/N=C/c1cc(Br)ccc1O)c1ccc(OC(F)(F)F)cc1 [Compound A7, 4-Trifluoromethoxy-N′-(5-bromo-2-hydroxybenzylidene)benzohydrazide]",0.5,> 4,–
"O=C(N/N=C/c1ccc(Br)cc1O)c1cccc(C(F)(F)F)c1 [Compound A26, 3-Trifluoromethyl-N′-(4-bromo-2-hydroxybenzylidene)benzohydrazide]",0.5,1,–
"O=C(N/N=C/c1cc(Br)cc(Br)c1O)c1ccc(OC(F)(F)F)cc1F [Compound A13, 2-Fluoro-4-trifluoromethoxy-N′-(3,5-dibromo-2-hydroxybenzylidene)-benzohydrazide]",0.06,0.5,–
"O=C(N/N=C/c1ccc(Br)cc1O)c1ccc(OC(F)F)cc1 [Compound A21, 4-Difluoromethoxy-N′-(4-bromo-2-hydroxybenzylidene)benzohydrazide]",0.12,–,–

# The next lines start with results.
MIC80 (C. neoformans) [µg/mL],Structure (SMILES),MFC (C. neoformans cells) [µg/mL],K100* (μg/mL) (C. neoformans cells)
0.25,"O=C(N/N=C/c1cc(Br)ccc1O)c1ccc(Br)c(Br)c1 [Compound A33, 3,4-Dibromo-N′-(5-bromo-2-hydroxybenzylidene)benzohydrazide]",2,–
0.12,"O=C(N/N=C/c1cc(Br)cc(Br)c1O)c1cc(Br)c(Br)o1 [Compound H9, 4,5-Dibromo-N′-(3,5-dibromo-2-hydroxybenzylidene)furan-2-carbohydrazide]",> 0.5,–
0.12,"C#Cc1ccc(C(=O)N/N=C/c2cc(Br)cc(Br)c2O)cc1 [Compound A46, 4-Ethynyl-N′-(3,5-dibromo-2-hydroxybenzylidene)benzohydrazide]",–,Fungistatic
0.12,"O=C(N/N=C/c1cc(Cl)ccc1O)c1cc(Br)cc(Br)c1 [Compound A40, 3,5-Dibromo-N′-(5-chloro-2-hydroxybenzylidene)benzohydrazide]",1,–
0.12,"Cc1ccc(O)c(/C=N/NC(=O)c2ccc(Br)c(Br)c2)c1 [Compound A34, 3,4-Dibromo-N′-(2-hydroxy-5-methylbenzylidene)benzohydrazide]",> 1,–
0.12,"O=C(N/N=C/c1c(O)ccc2ccccc12)c1ccc(Br)s1 [Compound H5, 5-Bromo-N′-((2-hydroxynaphthalen-1-yl)methylene)thiophene-2-carbohydrazide]",> 0.5,–
0.5,"O=C(N/N=C/c1cc(Br)cc(Br)c1O)c1ccc(CF)cc1 [Compound A44, 4-Fluromethyl-N′-(3,5-dibromo-2-hydroxybenzylidene)benzohydrazide]",0.5,–
0.25,"O=C(N/N=C/c1cc(Br)ccc1O)c1cc(Br)c(Br)o1 [Compound H7, 4,5-Dibromo-N′-(5-bromo-2-hydroxybenzylidene) furan-2-carbohydrazide]",> 1,–
0.25,"O=C(N/N=C/c1cc(Br)cc(Br)c1O)c1ncc(Br)cn1 [Compound H1, 5-Bromo-N′-(3,5-dibromo-2-hydroxybenzylidene)pyrimidine-2-carbohydrazide]",> 2,–
0.5,"O=C(N/N=C/c1ccc(Br)cc1O)c1cc(Br)co1 [Compound H12, 4-Bromo-N′-(4-bromo-2-hydroxybenzylidene) furan-2-carbohydrazide]",> 2,–
0.06,"O=C(N/N=C/c1ccc(Br)cc1O)c1ccc(Br)c(Br)c1 [Compound A35, 3,4-Dibromo-N′-(4-bromo-2-hydroxybenzylidene)benzohydrazide]",> 5,–
0.5,"O=C(N/N=C/c1cc(Cl)cc(Cl)c1O)c1cc(Br)cc(Br)c1 [Compound A38, 3,5-Dibromo-N′-(3,5-dichloro-2-hydroxybenzylidene)benzohydrazide]",0.5,–
0.25,"O=C(N/N=C/c1c(O)ccc2ccccc12)c1cc(Br)cc(Br)c1 [Compound A37, 3,5-Dibromo-N′-(2-hydroxy-1-naphthylidene)benzohydrazide]",0.5,–
0.5,"O=C(N/N=C/c1cc(Br)cc(Br)c1O)c1cccc(Br)c1Br [Compound A42, 2,3-Dibromo-N′-(3,5-dibromo-2-hydroxybenzylidene)benzohydrazide]",0.5,–
0.5,"Cc1ccc(O)c(/C=N/NC(=O)c2cc(Br)cc(Br)c2)c1 [Compound A41, 3,5-Dibromo-N′-(2-hydroxy-5-methylbenzylidene)benzohydrazide]",1,–
0.12,"O=C(N/N=C/c1ccc(Br)cc1O)c1ccc(Br)s1 [Compound H3, 5-Bromo-N′-(4-bromo-2-hydroxybenzylidene)thiophene-2-carbohydrazide]",> 0.5,–
0.5,"O=C(N/N=C/c1ccc(Br)cc1O)c1ccoc1 [Compound H14, N′-(4-bromo-2-hydroxybenzylidene) furan-3-carbohydrazide]",> 1,–
